Peptide text beside a SMILES is read from it. * marks the point of attachment. Cbz = O=C(OCc1ccccc1)*; CH2F = FC*
Experiments:
[1] = system: heme plus Pam3-treated BMDMs; experiment: Inhibitor effect on heme plus Pam3-induced cell death in BMDMs; format: cell-based, mouse
Experimental: (§1) Bone Marrow-Derived Macrophages (BMDMs). Primary mouse BMDMs from wild-type and indicated mutant mice were grown for 6 days in Iscove's Modified Dulbecco's Medium (IMDM; Thermo Fisher Scientific) supplemented with 10% Fetal Bovine Serum (Biowest), 30% L929-conditioned media, 1% non-essential amino acids (Thermo Fisher Scientific) and 1% penicillin and streptomycin (Thermo Fisher Scientific). BMDMs at a density of 1×10^6 cells/well in 12-well plates or 5×10^5 cells/well in 24-well plates were seeded into growth media overnight before use.
(§2) Cell Stimulation. BMDMs were stimulated with the following PAMPs, DAMPs and inhibitors alone or in combinations where indicated: 50 μM Hemin (heme; Sigma-Aldrich), 0.75 μg/mL Pam3CSK4 (Pam3; InvivoGen), 15 ng/mL ultrapure lipopolysaccharide (LPS) from E. coli 0111:B4 (InvivoGen), 500 ng/ml R848 (InvivoGen), 100 ng/mL TNF-α (Peprotech), 1 μg/mL poly(I:C) (Invivogen), 200 ng/mL monosodium urate crystals (Invivogen), 200 ng/mL recombinant mouse S100A8/S100A9 heterodimer (bio-techne), 200 ng/mL recombinant mouse HMGB1 (Abcam), 25 μM Z-VAD(OMe)-FMK (zVAD; Cayman Chemical) and 45 μM Necrostatin 2 racemate (Nec-1; Selleckchem).
(§3) Real-Time Imaging for Cell Death. The kinetics of cell death were monitored using the IncuCyte S3 or SX5 (Sartorius) live-cell analysis system. BMDMs (5×10^5 cells/well) were seeded in 24-well tissue culture plates and were treated with the indicated stimuli. Cell death was measured by propidium iodide (PI; Life Technologies) incorporation following the manufacturer's protocol. The plate was scanned for the indicated time durations where fluorescent and phase-contrast images were acquired in real-time every 1 hour. PI-positive dead cells are marked with a red mask and were quantified using the software package supplied with the IncuCyte imager.

[2] = system: bone marrow-derived macrophages (BMDMs); experiment: Real-time imaging for cell death (propidium iodide incorporation, IncuCyte); format: cell-based, mouse; settings: WT BMDMs; stimuli alone or combined; 48 hours (FIG. 1, FIG. 2)
Experimental: as §1, §2, §3

Row | Molecule | cell death [2] | further results
1 | CN1C(=O)NC(Cc2c[nH]c3c(Cl)cccc23)C1=O (racemic) [Nec-1, Necrostatin 2 racemate] |  | effect on cell death ([1]; WT BMDMs, heme plus Pam3, Nec-1 alone, compared to PBS control): partially reduced cell death
2 | CC(C)(O)c1coc(S(=O)(=O)NC(=O)Nc2c3c(cc4c2CCC4)CCC3)c1 [MCC950] |  | effect on cell death ([1]; heme plus Pam3-treated BMDMs, MCC950): did not prevent cell death
3 | O=c1[nH]c(=O)c2[nH]c([O-])nc2[nH]1.[Na+] [MSU, monosodium urate] | did not induce cell death | 
4 | C=CC1=C(C)c2cc3[n-]c(cc4[n-]c(cc5nc(cc1n2)C(C)=C5C=C)c(C)c4CCC(=O)O)c(CCC(=O)O)c3C.[Cl-].[Fe+3] [heme, ferriprotoporphyrin IX chloride] | did not induce cell death | 
5 | COC(=O)C[C@H](NC(=O)[C@H](C)NC(=O)[C@@H](NC(=O)OCc1ccccc1)C(C)C)C(=O)CF [zVAD, Z-VAD(OMe)-FMK] (Cbz-Val-Ala-Asp(OMe)-CH2F) |  | effect on cell death ([1]; WT BMDMs, heme plus Pam3, combination of Nec-1 with zVAD): further reduced the cell death
6 | Pam3CSK4 | Minimal cell death | 
7 | lipopolysaccharide [LPS] | Minimal cell death | 
8 | polyinosinic:polycytidylic acid [poly(I:C)] | Minimal cell death | 
9 | S100A8/A9: recombinant mouse S100A8/S100A9 heterodimer, a DAMP (protein, UniProt P27005 2-89; P31725 2-113, looked up) Protein S100-A8: PSELEKALSNLIDVYHNYSNIQGNHHALYKNDFKKMVTTECPQFVQNINIENLFRELDINSDNAINFEEFLAMVIKVGVASHKDSHKE Protein S100-A9: ANKAPSQMERSITTIIDTFHQYSRKEGHPDTLSKKEFRQMVEAQLATFMKKEKRNEALINDIMEDLDTNQDNQLSFEECMMLMAKLIFACHEKLHENNPRGHGHSHGKGCGK | did not induce cell death | 
10 | high-mobility group box 1 protein (protein, UniProt P63158 1-215, looked up, recombinant mouse HMGB1, a DAMP) High mobility group protein B1: MGKGDPKKPRGKMSSYAFFVQTCREEHKKKHPDASVNFSEFSKKCSERWKTMSAKEKGKFEDMAKADKARYEREMKTYIPPKGETKKKFKDPNAPKRPPSAFFLFCSEYRPKIKGEHPGLSIGDVAKKLGEMWNNTAADDKQPYEKKAAKLKEKYEKDIAAYRAKGKPDAAKKGVVKAEKSKKKKEEEDDEEDEEDEEEEEEEEDEDEEEDDDDE | did not induce cell death | 
